Assay results as given in US10829458B2 (Araxes Pharma LLC, priority 2015, dated 2020).

Molecular target: T1, KRAS G12C 1-169, his-tagged protein, GDP-loaded (Homo sapiens, UniProt P01116, G12C)
T1 construct: KRAS G12C 1-169, his-tagged protein, GDP-loaded
Assay: Biochemical assay: covalent modification of KRAS G12C measured by mass spectrometry (RapidFire/TOF or Q-Exactive)
Settings: covalent binding to KRAS G12C
In short: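 GDP-loaded his-tagged KRAS G12C 1-169 at 2 μM in 20 mM Hepes, 150 mM NaCl, 1 mM MgCl2 incubated at room temperature with compound (10, 30 or 100 μM final, 2% DMSO) for 30 min, 2 h or 24 h, then quenched with formic acid. Intact-protein LC-MS (RapidFire/TOF or Q-Exactive) with deconvolution quantified modified versus unmodified protein.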

SMILES | Binding % (compounds of structure (I)) | also measured
C=CC(=O)N1CCN(c2nc(OC3COC3)nc3c(F)c(-c4c(O)cccc4F)c(Cl)cc23)CC1 [Example I-19, 1-(4-(6-chloro-8-fluoro-7-(2-fluoro-6-hydroxyphenyl)-2-(oxetan-3-yloxy)quinazolin-4-yl)piperazin-1-yl)prop-2-en-1-one] | ++ (++ indicates binding activity from 50 to 90%) | 
C=CC(=O)N1CCN(c2nc(OCC(F)(F)c3ccccn3)nc3c(F)c(-c4c(C)ccc5[nH]ncc45)c(Cl)cc23)CC1 [Example I-123, 1-(4-(6-chloro-2-(2,2-difluoro-2-(pyridin-2-yl)ethoxy)-8-fluoro-7-(5-methyl-1H-indazol-4-yl)quinazolin-4-yl)piperazin-1-yl) prop-2-en-1-one] | +++ (+++ indicates binding activity greater than 90%) | 
C=CC(=O)N1CCN(c2nc(N3CC(N(C)C)C3)nc3c(F)c(-c4c(O)cccc4F)c(Cl)cc23)CC1 (atropisomer, axis not shown) [Example I-116, (S)-1-(4-(6-chloro-2-(3-(dimethylamino)azetidin-1-yl)-8-fluoro-7-(2-fluoro-6-hydroxyphenyl)quinazolin-4-yl)piperazin-1-yl) prop-2-en-1-one] | +++ (+++ indicates binding activity greater than 90%) | 
C=CC(=O)N1CCN(c2nc(OCCN3CCOCC3)nc3c(F)c(-c4cc(O)cc5cccnc45)c(Cl)cc23)CC1 [Example I-108, 1-(4-(6-chloro-8-fluoro-7-(6-hydroxy-quinolin-8-yl)-2-(2-morpholino-ethoxy)quinazolin-4-yl)piperazin-1-yl) prop-2-en-1-one] | +++ (+++ indicates binding activity greater than 90%) | 
C=CC(=O)N1CCN(c2ncnc3c(F)c(-c4c(O)ccc(F)c4F)c(Cl)cc23)CC1 [II-3, 1-(4-(6-chloro-7-(2,3-difluoro-6-hydroxyphenyl)-8-fluoroquinazolin-4-yl)piperazin-1-yl)prop-2-en-1-one] |  | Binding % (compounds of structure (II)): +++ (+++ indicates binding activity of 75% or greater)
C=CC(=O)N1CCN(c2nc(NCC3CCN(C4CC4)CC3)nc3c(F)c(-c4c(C)ccc5[nH]ncc45)c(Cl)cc23)CC1 [Example I-160, 1-(4-(6-chloro-2-((1-cyclo-propyl-piperidin-4-yl)methylamino)-8-fluoro-7-(5-methyl-1H-indazol-4-yl)quinazolin-4-yl)piperazin-l-yl) prop-2-en-1-one] | +++ (+++ indicates binding activity greater than 90%) | 
C=CC(=O)N1CCN(c2ncnc3c(F)c(-c4c(C)ccc5cn[nH]c45)c(Cl)cc23)[C@@H](C)C1 [III-3, 1-((3S)-4-(6-chloro-8-fluoro-7-(6-methyl-1H-indazol-7-yl)quinazolin-4-yl)-3-methyl-piperazin-1-yl)prop-2-en-1-one] |  | Binding % (compounds of structure (III)): ++ (++ indicates activity from 50% to 90%)
C=CC(=O)N1CCN(c2nc(OCCN3CCOCC3)nc3c(F)c(-c4ccccc4C(F)(F)F)c(Cl)cc23)CC1 [Example I-48, 1-(4-(6-chloro-8-fluoro-2-(2-morpholino-ethoxy)-7-(2-(trifluoromethyl)phenyl)quinazolin-4-yl)piperazin-1-yl)prop-2-en-1-one] | +++ (+++ indicates binding activity greater than 90%) | 
C=CC(=O)N1CCN(c2nc(NC3CCN(C(C)=O)CC3)nc3c(F)c(-c4c(O)cccc4F)c(Cl)cc23)CC1 [Example I-70, 1-(4-(2-(1-acetyl-piperidin-4-ylamino)-6-chloro-8-fluoro-7-(2-fluoro-6-hydroxyphenyl)quinazolin-4-yl)piperazin-1-yl) prop-2-en-1-one] | +++ (+++ indicates binding activity greater than 90%) | 
C=CC(=O)N1CCN(c2nc(OCCN(CC)CC)nc3c(F)c(-c4c(O)cccc4F)c(Cl)cc23)CC1 [Example I-40, 1-(4-(6-chloro-2-(2-(diethyl-amino)ethoxy)-8-fluoro-7-(2-fluoro-6-hydroxyphenyl)quinazolin-4-yl)piperazin-1-yl) prop-2-en-1-one] | +++ (+++ indicates binding activity greater than 90%) | 
C=CC(=O)N1CCN(c2c(C#N)c(N3CC(N(C)C)C3)nc3c(F)c(-c4c(O)cccc4F)c(Cl)cc23)CC1 [Example I-197, 4-(4-acryloyl-piperazin-1-yl)-6-chloro-2-(3-(dimethyl-amino)azetidin-1-yl)-8-fluoro-7-(2-fluoro-6-hydroxyphenyl) quinoline-3-carbonitrile] | ++ (++ indicates binding activity from 50 to 90%) | 
C=CC(=O)N1CCN(c2nc(OCCN3CCOCC3=O)nc3c(F)c(-c4cc(O)cc5ccccc45)c(Cl)cc23)CC1 [Example I-57, 4-(2-(4-(4-acryloyl-piperazin-1-yl)-6-chloro-8-fluoro-7-(3-hydroxy-naphthalen-1-yl)quinazolin-2-yloxy)ethyl) morpholin-3-one] | +++ (+++ indicates binding activity greater than 90%) | 
C=CC(=O)N1CCN(c2nc(OCC3CCOCC3)nc3c(F)c(-c4c(C)ccc5[nH]ncc45)c(Cl)cc23)CC1 [Example I-15, 1-(4-(6-chloro-8-fluoro-7-(5-methyl-1H-indazol-4-yl)-2-((tetrahydro-2H-pyran-4-yl)methoxy)quinazolin-4-yl)piperazin-1-yl)prop-2-en-1-one] | +++ (+++ indicates binding activity greater than 90%) | 
C=CC(=O)N1CCN(c2nc(NCCc3ccccn3)nc3c(F)c(-c4c(O)cccc4F)c(Cl)cc23)CC1 [Example I-153, 1-(4-(6-chloro-8-fluoro-7-(2-fluoro-6-hydroxyphenyl)-2-(2-(pyridin-2-yl)ethylamino)quinazolin-4-yl)piperazin-1-yl) prop-2-en-1-one] | +++ (+++ indicates binding activity greater than 90%) | 
C=CC(=O)N1CCN(c2nc(OCCNC)nc3c(F)c(-c4c(O)cccc4F)c(Cl)cc23)CC1 [Example I-86, 1-(4-(6-chloro-8-fluoro-7-(2-fluoro-6-hydroxyphenyl)-2-(2-(methyl-amino)ethoxy)quinazolin-4-yl)piperazin-1-yl)prop-2-en-1-one] | +++ (+++ indicates binding activity greater than 90%) | 
C=CC(=O)N1CCN(c2nc(SCCN3CCOCC3)nc3c(F)c(-c4c(O)cccc4F)c(Cl)cc23)CC1 [Example I-17, 1-(4-(6-chloro-8-fluoro-7-(2-fluoro-6-hydroxyphenyl)-2-(2-morpholino-ethylthio)quinazolin-4-yl)piperazin-1-yl)prop-2-en-1-one] | ++ (++ indicates binding activity from 50 to 90%) | 
C=CC(=O)N1CCN(c2nc(C#N)nc3c(F)c(-c4c(C)ccc5[nH]ncc45)c(Cl)cc23)CC1 [Example I-11, 4-(4-acryloyl-piperazin-1-yl)-6-chloro-8-fluoro-7-(5-methyl-1H-indazol-4-yl)quinazoline-2-carbonitrile] | +++ (+++ indicates binding activity greater than 90%) | 
C=CC(=O)N1CCN(c2ncnc3c(F)c(-c4c(O)cccc4F)c(Cl)cc23)[C@@H](CO)C1 [III-39, 1-((3R)-4-(6-chloro-8-fluoro-7-(2-fluoro-6-hydroxy-phenyl)quinazolin-4-yl)-3-(hydroxy-methyl)piperazin-1-yl)prop-2-en-1-one] |  | Binding % (compounds of structure (III)): + (+ indicates binding activity up to 50%)
C=CC(=O)N1C[C@H](C)N(c2ncnc3c(F)c(-c4c(F)cccc4OC)c(Cl)cc23)C[C@H]1C [III-2, 1-((2R,5S)-4-(6-chloro-8-fluoro-7-(2-fluoro-6-methoxy-phenyl)quinazolin-4-yl)-2,5-dimethyl-piperazin-1-yl)prop-2-en-1-one] |  | Binding % (compounds of structure (III)): + (+ indicates binding activity up to 50%)
Cc1ccc2[nH]ncc2c1-c1c(Cl)cc2c(N3CCN(C(=O)/C=C/CN(C)C)CC3)nc(OCCN3CCCC3=O)nc2c1F [Example I-2, (E)-1-(2-(6-chloro-4-(4-(4-(dimethylamino)but-2-enoyl)piperazin-1-yl)-8-fluoro-7-(5-methyl-1H-indazol-4-yl)quinazolin-2-yloxy)ethyl) pyrrolidin-2-one] | + (+ indicates binding activity up to 50%) | 
C=CC(=O)N1CCN(c2nc(NC3CCN(C4CC4)CC3)nc3c(F)c(-c4c(O)cccc4F)c(Cl)cc23)CC1 [Example I-72, 1-(4-(6-chloro-2-(1-cyclopropyl-piperidin-4-ylamino)-8-fluoro-7-(2-fluoro-6-hydroxyphenyl)quinazolin-4-yl)piperazin-1-yl) prop-2-en-1-one] | +++ (+++ indicates binding activity greater than 90%) | 
C=CC(=O)N1C[C@@H](C)N(c2ncnc3c(F)c(-c4c(O)cccc4F)c(Cl)cc23)[C@@H](C)C1 (atropisomer, axis not shown) [III-36] |  | Binding % (compounds of structure (III)): +++ (+++ indicates binding activity greater than 90%)
C=CC(=O)N1CCN(c2nc(OCCN3CCOCC3)nc3c(F)c(-c4c(C)ccc5[nH]ncc45)c(Cl)cc23)CC1 (atropisomer, axis not shown) [Example I-31, (R)-1-(4-(6-chloro-8-fluoro-7-(5-methyl-1H-indazol-4-yl)-2-(2-morpholino-ethoxy)quinazolin-4-yl)piperazin-1-yl)prop-2-en-1-one] | +++ (+++ indicates binding activity greater than 90%) | 
C=CC(=O)N1CCN(c2nc(OCCN3CCOCC3)nc3c(F)c(-c4cc(O)cc5ccccc45)c(Cl)cc23)CC1 (atropisomer, axis not shown) [Example I-51, (S)-1-(4-(6-chloro-8-fluoro-7-(3-hydroxy-naphthalen-1-yl)-2-(2-morpholino-ethoxy)quinazolin-4-yl)piperazin-1-yl)prop-2-en-1-one] | +++ (+++ indicates binding activity greater than 90%) | 
C=CC(=O)N1CCN(c2nc(OCCN(C)C)nc3c(F)c(-c4cc(O)cc5ccccc45)c(Cl)cc23)CC1 (atropisomer, axis not shown) [Example I-95, (S)-1-(4-(6-chloro-2-(2-(dimethylamino)ethoxy)-8-fluoro-7-(3-hydroxy-naphthalen-1-yl)quinazolin-4-yl)piperazin-1-yl)prop-2-en-1-one] | +++ (+++ indicates binding activity greater than 90%) | 
